Measured values: patent US20090155440A1, “Salt Enhancing Compounds and Use” (GIVAUDAN SA, priority 2005, published 2009)

Experiments:
Format in all cases: in vivo
[1] = test system: sensory panel; assay: Sensory triangle test in chicken broth, Examples 3a and 3b; settings: for Kokumi Intensity (0-5): scale 0 to 5, 5 most intensive, reference 2; for Sensory results (compared to 1): chicken broth, Example 3b
Protocol: (§1) Unless otherwise indicated, all sensory tests are triangle tests and are performed according to the guidelines in “Amtliche Sammlung von Untersuchungsverfahren nach § 35 LMBG (Lebensmittel-und Bedarfsgegenständegesetz)”; L 00.90 7, Untersuchung von Lebensmitteln, Sensorische Prüfverfahren, Dreiecksprüfung (Übernahme der gleichnahmigen Deutschen Norm DIN ISO 4120, Ausgabe Januar 1995), as follows:
The sensory panel is trained to evaluate the taste of aqueous solutions (4 ml each) of the following standard taste compounds by using a triangle test as described in the literature (Wieser and Belitz, Z. Lebensm. Unters. Forsch., 1975,159, 65-72): sucrose (40 mmol/L) for sweet taste; citric acid (5 mmol/L) for sour taste; NaCl (12 mmol/L) for salty taste; caffeine (2 mmol/L) for bitter taste; and monosodium glutamate (MSG; 6 mmol/L) for umami taste. For kokumi taste, a solution of glutathione (10 mmol/L) in diluted chicken broth concentrate (Goumet Bouillon Huhn, Maggi, Singen, Germany; 3 g/100 g bottled water (Evian®)) is prepared and compared to the taste of chicken broth with no glutathione added.
(§2) For recording the taste profiles, samples are prepared as indicated in the examples below. Taste profiles of samples are determined in a triangle test in three different sessions. Panellists refrain from eating or drinking for at least 1 hour prior to the session. At the start of the session and before each trial, the subject rinsed with water and expectorated. The participants receive a set of two blanks and one taste sample. Liquid samples are swirled around in the mouth briefly and expectorated. Solid samples are chewed for 20 seconds and then expectorated. […] Each sample with additive is compared to two reference samples without additives. Kokumi intensity is rated from 0-5 according to a scale from 0 to 5 (with 5 most intensive). The additive is added to a consumable and the sample is homogenised. The samples are presented to the sensory panel directly after homogenisation. The sensory panel included 6-8 trained individuals with exception of example 4, here the panel consists of 10 trained individuals.
Chicken broth is prepared by diluting 3 g of a chicken broth concentrate (Gourmet Bouillon Huhn, Nestle) with 100 ml water. Additives are added as specified in table below in a concentration of 10 mmol/L. The pH-value of all samples is adjusted to 6.5 using formic acid (0.1 mol/L) or sodium hydroxide (0.1 mol/L).
Kokumi intensity is rated according to a scale from 0 to 5 (with 5 most intensive). […] The additive is added to a consumable and the sample is homogenised.
The samples are presented to the sensory panel directly after homogenisation. The sensory panel included 8 trained individuals.
The samples are tested as described above in example 3a.

[2] = test system: sensory panel; assay: Sensory test in cream cheese, Example 4; settings: for Sensory results (compared to 1): versus reference without additives; for Sensory results compared to 2: versus NaCl Reference (2000 ppm)
Protocol: as §1, §2
Samples are compared by a panel of 10 trained panelists.

[3] = test system: sensory panel; assay: Isointensity triangle test, S-substituted peptides in sodium salt solution (30 mmol/L NaCl), Example 1a; settings: compound 10 mmol/L in aqueous NaCl 30 mmol/L, pH 6.5; reference without additive 30 mmol/L
Protocol: Unless otherwise indicated, all sensory tests are triangle tests and are performed according to the guidelines in “[…] von […]-und Bedarfsgegenständegesetz)”; L 00.90 7, Untersuchung von Lebensmitteln, Sensorische […] Deutschen Norm DIN ISO 4120, Ausgabe Januar 1995), as follows: The sensory panel is trained to evaluate the taste of aqueous solutions (4 ml each) of the following standard taste compounds by using a triangle test as described in the literature ([…] and Belitz, Z. Lebensm. Unters. Forsch., 1975,159, 65-72): sucrose (40 mmol/L) for sweet taste; citric acid (5 mmol/L) for sour taste; […] All sensory analyses are performed in a sensory panel room at 22-25° C. over three different sessions by a trained panel of 8 to 10 individuals. For recording the taste profiles, samples are prepared as indicated in the examples below. Taste profiles of samples are determined in a triangle test in three different sessions. Panellists refrain from eating or drinking for at least 1 hour prior to the session. At the start of the session and before each trial, the subject rinsed with water and expectorated. The participants receive a set of two blanks and one taste sample. Liquid samples are swirled around in the mouth briefly and expectorated. Solid samples are chewed for 20 seconds and then expectorated. […] Each sample with additive is compared to two reference samples without additives. Kokumi intensity is rated from 0-5 according to a scale from 0 to 5 (with 5 most intensive). The additive is added to a consumable and the sample is homogenised. The samples are presented to the sensory panel directly after homogenisation. The sensory panel included 6-8 trained individuals with exception of example 4, here the panel consists of 10 trained individuals. The compounds listed in the table below are dissolved in an aqueous solution (pH 6.5) of NaCl (30 mmol/L).

[4] = test system: sensory panel; assay: Sensory test in ketchup, Example 5; settings: additive 500 ppm
Protocol: as §1
as §2, with “The sensory panel included 6-8 trained individuals with exception of example 4, here the panel consists of 10 trained individuals.” left out

[5] = test system: sensory panel; assay: Isointensity triangle test in sodium and potassium salt solution (30 mmol/L NaCl, 15 mmol/L KCl), Example 1b; settings: NaCl 30 mmol/L + KCl 15 mmol/L, salt enhancer 10 mmol/L; without enhancer 40 mmol/L
Protocol: Unless otherwise indicated, all sensory tests are triangle tests and are performed according to the guidelines in “[…] von […]-und Bedarfsgegenständegesetz)”; L 00.90 7, Untersuchung von Lebensmitteln, Sensorische […] Deutschen Norm DIN ISO 4120, Ausgabe Januar 1995), as follows: For recording the taste profiles, samples are prepared as indicated in the examples below. Taste profiles of samples are determined in a triangle test in three different sessions. Panellists refrain from eating or drinking for at least 1 hour prior to the session. At the start of the session and before each trial, the subject rinsed with water and expectorated. The participants receive a set of two blanks and one taste sample. Liquid samples are swirled around in the mouth briefly and expectorated. Solid samples are chewed for 20 seconds and then expectorated. […] Each sample with additive is compared to two reference samples without additives. Kokumi intensity is rated from 0-5 according to a scale from 0 to 5 (with 5 most intensive). The additive is added to a consumable and the sample is homogenised. The samples are presented to the sensory panel directly after homogenisation. […] KCl is often used in small concentrations to reduce sodium without loss of salty taste. […] For the samples compared and the results see the table below.

N[C@@H](CCC(=O)N[C@@H](CS)C(=O)NCC(=O)O)C(=O)O [GSH reduced, glutathione]
Kokumi Intensity (0-5) ([1]; chicken broth pH 6.5, additive 10 mmol/L): 3.5

N[C@@H](CCC(=O)O)C(=O)[O-].[Na+] [MSG, monosodium glutamate]
Sensory results (compared to 1) ([1]; additive 2000 ppm): Higher umami intensity

[Cl-].[Na+] [NaCl, sodium chloride, reference compound]
Sensory results (compared to 1) ([1]; additive 2000 ppm): More salty | Sensory results (compared to 1) ([2]; additive 2000 ppm): More salty

CCOC(=O)[C@@H](N)CSC(CC(=O)O)C(=O)O (stereo partly drawn) [S-(α,β-dicarboxyethyl) cysteine ethyl ester]
concentration of an isointense NaCl-solution [3]: 42 mmol/L

COC(=O)[C@@H](N)CSC(CC(=O)O)C(=O)O (stereo partly drawn) [S-(α,β-dicarboxyethyl) cysteine methyl ester]
concentration of an isointense NaCl-solution [3]: 38 mmol/L

N[C@@H](CCC(=O)N[C@@H](CSC(CC(=O)O)C(=O)O)C(=O)NCC(=O)O)C(=O)O (stereo partly drawn) [S-(α,β-dicarboxyethyl) γ-L-glutamyl-L-cysteinyl-glycine]
Sensory results (compared to 1) [4]: Slightly more salty | Kokumi Intensity (0-5) ([1]; chicken broth pH 6.5, additive 400 ppm): 3.5 | concentration of an isointense NaCl-solution [5]: 57 mmol/L | concentration of an isointense NaCl-solution [3]: 48 mmol/L | Sensory results compared to 2 ([2]; additive 1000 ppm): greater effect on saltiness than the addition of NaCl

CCOC(=O)C(CSC(CC(=O)O)C(=O)O)NC(=O)CC[C@H](N)C(=O)O (stereo partly drawn) [S-(α,β-dicarboxyethyl) γ-L-glutamyl-cysteine ethyl ester]
concentration of an isointense NaCl-solution [3]: 48 mmol/L

N[C@@H](CCC(=O)N[C@@H](CSC(CC(=O)O)C(=O)O)C(=O)O)C(=O)O (stereo partly drawn) [S-(α,β-dicarboxyethyl) γ-L-glutamyl-cysteine]
concentration of an isointense NaCl-solution [3]: 60 mmol/L | Sensory results compared to 2 ([2]; additive 1000 ppm): greater effect on saltiness than the addition of NaCl

N[C@@H](CSC(CC(=O)O)C(=O)O)C(=O)O (stereo partly drawn) [S-(α,β-dicarboxyethyl)-L-cysteine, S-(α,β-dicarboxyethyl) cysteine]
Sensory results (compared to 1) ([1]; additive 400 ppm): More salty | concentration of an isointense NaCl-solution [3]: 40 mmol/L | Sensory results compared to 2 ([2]; additive 1000 ppm): Slightly more salty | Sensory results (compared to 1) ([2]; additive 1000 ppm): More salty

N[C@@H](CCC(=O)N[C@@H](CSCCC(=O)O)C(=O)NCC(=O)O)C(=O)O [β-S-(carboxyethyl) γ-L-glutamyl-L-cysteinyl-glycine]
concentration of an isointense NaCl-solution [3]: 38 mmol/L

N[C@@H](CCC(=O)N[C@@H](CSC(CCC(=O)O)C(=O)O)C(=O)NCC(=O)O)C(=O)O (stereo partly drawn) [β-S-(α,γ-dicarboxypropyl) γ-L-glutamyl-L-cysteinyl-glycine]
concentration of an isointense NaCl-solution [3]: 48 mmol/L
